Positions count from the first letter of the chain named.
How the values were obtained:
[1] = biological target: T1, β-glucocerebrosidase, p.L444P mutation (GM08760A fibroblasts) (Homo sapiens, UniProt P04062, L483P); assay: Enhancement of β-glucocerebrosidase activity measured in Gaucher disease fibroblasts (L444P); format: cell-based; settings: increase in enzyme activity vs non-treated cells, GBA fibroblasts bearing L444P
T1 construct: host or cells: human Gaucher patient fibroblasts GM08760A, homozygous L444P
T1 sequence (P04062 40-536 L483P): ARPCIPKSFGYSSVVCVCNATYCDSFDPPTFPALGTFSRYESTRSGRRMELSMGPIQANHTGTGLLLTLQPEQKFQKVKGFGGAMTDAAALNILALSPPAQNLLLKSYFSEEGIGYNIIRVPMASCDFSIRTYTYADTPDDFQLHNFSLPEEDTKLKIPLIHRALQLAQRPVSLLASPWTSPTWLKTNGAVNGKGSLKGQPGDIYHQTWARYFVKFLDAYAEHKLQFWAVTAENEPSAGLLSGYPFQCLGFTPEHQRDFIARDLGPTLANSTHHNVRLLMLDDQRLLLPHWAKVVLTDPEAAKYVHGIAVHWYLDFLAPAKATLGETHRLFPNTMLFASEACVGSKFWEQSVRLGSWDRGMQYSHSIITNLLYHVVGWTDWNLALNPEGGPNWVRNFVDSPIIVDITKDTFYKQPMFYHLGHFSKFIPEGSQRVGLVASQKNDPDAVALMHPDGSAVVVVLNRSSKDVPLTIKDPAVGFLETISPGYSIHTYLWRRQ
Experimental: Enhancement of β-Glucocerebrosidase Activity Measured in Gaucher Disease Fibroblasts Materials
Human fibroblasts from a patient with Gaucher disease homozygous for p.L444P mutation (GM08760A) were purchased from Coriell Institute for Medical Research (Camden, N.J., USA).
(§1) Fibroblasts were seeded at 5×10^3 cells per well in 96-well cell culture plates (Corning, N.Y., USA) in Dulbecco's Modified Eagle's Media (DMEM) supplemented with 10% of fetal bovine serum (FBS), 1% penicillin/streptomycin (P/S) (Thermo Fisher Scientific, Waltham, Mass., USA) and grown at 37° C., 5% CO2 overnight for cell attachment. Subsequently, cells were incubated in the absence or presence of the compounds at the desired concentration for 4 days. After incubation, cells were washed twice with phosphate-buffered saline (PBS) and enzyme activity assay was performed.
(§2) β-glucocerebrosidase activity in intact cultured cells was measured by using 4-methylumbelliferyl-β-D-glucopyranoside substrate (Apollo Scientific, UK). Briefly, cells were incubated with 4-MU-β-D-glucopyranoside in 0.1 M acetate buffer pH=4 at 37° C. for 1 hour. […] The liberated 4-MU was measured on a GloMax Discover plate reader (Promega, Madison, Wis., USA) with and excitation at 340 nm and emission at 460 nm. Enzyme activities were expressed in treated cells as X-fold increase in comparison with non-treated cells (X=1 represents no enhancement).
The capacity of the compounds of the disclosure to produce an increase in enzyme activity in GBA fibroblasts bearing L444P at concentrations between 6 and 50 μM is denoted as follows:
(§3) The following compounds listed in Table 2 were purchased (from Enamine, Princeton, Asinex, Vistas-M, and OSSK_541352) and tested in the assay as described above.

[2] = biological target: T2, β-glucocerebrosidase Wild Type (WT) (Homo sapiens, UniProt P04062); assay: β-glucocerebrosidase activity enhancement, Wild Type (WT); format: cell-based; settings: increase in enzyme activity vs non-treated cells; for Activity WT: commercially available compounds
T2 construct: endogenous in cells
T2 sequence (P04062 40-536): T1 sequence (P04062 40-536 L483P) with P444L
Experimental: as §1, §2, §3

[3] = commercially available compounds, 6-50 μM, 4 days
[4] = concentrations between 6 and 50 μM, 4 days incubation

Row | Compound | Activity L444P [1, 3] | Activity WT [2] | Activity L444P [1, 4] | Activity Wild Type (WT) [2]
1 | CCN(Cc1ccccc1)C(C)c1nc(N)nc(Nc2ccccc2)n1 (centres unmarked) [6-(1-(benzyl(ethyl)amino)ethyl)-N2-phenyl-1,3,5-triazine-2,4-diamine] | B (Increase in comparison with non-treated of >1.7-2.0 fold is shown as B) | B (Increase in comparison with non-treated of >1.7-2.0 fold is shown as B) | – | –
2 | Cc1ccc(Nc2nc(N)nc(CN3CCc4ccccc4C3)n2)cc1 [6-((3,4-dihydroisoquinolin-2(1H)-yl)methyl)-N2-(p-tolyl)-1,3,5-triazine-2,4-diamine] | B (Increase in comparison with non-treated of >1.7-2.0 fold is shown as B) | B (Increase in comparison with non-treated of >1.7-2.0 fold is shown as B) | – | –
3 | Cc1ccc(Nc2nc(N)nc(CN3CCCc4ccccc43)n2)cc1 [6-((3,4-dihydroquinolin-1(2H)-yl)methyl)-N2-(p-tolyl)-1,3,5-triazine-2,4-diamine] | C (Increase in comparison with non-treated of 1.2-1.7 fold is shown as C) | C (Increase in comparison with non-treated of 1.2-1.7 fold is shown as C) | – | –
4 | Nc1nc(CN2CCN(c3cccc(Cl)c3)CC2)nc(Nc2ccc3c(c2)OCCO3)n1 [6-((4-(3-chlorophenyl)piperazin-1-yl)methyl)-N2-(2,3-dihydrobenzo[b][1,4]dioxin-6-yl)-1,3,5-triazine-2,4-diamine] | B (Increase in comparison with non-treated of >1.7-2.0 fold is shown as B) | C (Increase in comparison with non-treated of 1.2-1.7 fold is shown as C) | – | –
5 | Cc1ccc(Nc2nc(N)nc(CN3CCN(Cc4ccc5c(c4)OCO5)CC3)n2)cc1 [6-((4-(benzo[d][1,3]dioxo1-5-ylmethyl)piperazin-1-yl)methyl)-N2-(p-tolyl)-1,3,5-triazine-2,4-diamine] | C (Increase in comparison with non-treated of 1.2-1.7 fold is shown as C) | B (Increase in comparison with non-treated of >1.7-2.0 fold is shown as B) | – | –
6 | CCc1ccc(CN(C)Cc2nc(N)nc(Nc3ccc(C)cc3)n2)cc1 [6-(((4-ethylbenzyl)(methyl)amino)methyl)-N2-(p-tolyl)-1,3,5-triazine-2,4-diamine] | C (Increase in comparison with non-treated of 1.2-1.7 fold is shown as C) | B (Increase in comparison with non-treated of >1.7-2.0 fold is shown as B) | – | –
7 | Cc1ccc(Nc2nc(N)nc(CN(C)c3ccc4ccccc4c3)n2)cc1 [6-((methyl(naphthalen-2-yl)amino)methyl)-N2-(p-tolyl)-1,3,5-triazine-2,4-diamine] | A (Increase in comparison with non-treated of >2.0 fold is shown as A) | C (Increase in comparison with non-treated of 1.2-1.7 fold is shown as C) | – | –
8 | Cc1ccc(Nc2nc(N)nc(CN(C)c3ccccc3)n2)cc1 [Example 1, 6-((Methyl(phenyl)amino)methyl)-N^2-(p-tolyl)-1,3,5-triazine-2,4-diamine] | – | – | C (Increase in comparison with non-treated of 1.2-1.7 fold is shown as C) | B (Increase in comparison with non-treated of >1.7-2.0 fold is shown as B)
9 | COc1cccc(Nc2nc(N)nc(CN(C)c3ccccc3)n2)c1 [Example 3] | – | – | C (Increase in comparison with non-treated of 1.2-1.7 fold is shown as C) | B (Increase in comparison with non-treated of >1.7-2.0 fold is shown as B)
10 | Cc1ccc(Nc2nc(N)nc(CN(C)Cc3ccccc3)n2)cc1 [Example 4, 6-((Benzyl(methyl)amino)methyl)-N^2-p-tolyl-1,3,5-trizine-2,4-diamine] | – | – | C (Increase in comparison with non-treated of 1.2-1.7 fold is shown as C) | A (Increase in comparison with non-treated of >2.0 fold is shown as A)
11 | CN(Cc1ccccc1)Cc1nc(N)nc(Nc2ccc(Br)cc2)n1 [Example 5, 6-((Benzyl(methyl)amino)methyl)-N^2-(4-bromophenyl)-1,3,5-triazine-2,4-diamine] | – | – | C (Increase in comparison with non-treated of 1.2-1.7 fold is shown as C) | C (Increase in comparison with non-treated of 1.2-1.7 fold is shown as C)
12 | COc1ccc(Nc2nc(N)nc(CN(C)Cc3ccccc3)n2)cc1 [Example 6, 6-((Benzyl(methyl)amino)methyl)-N^2-(4-methoxyphenyl)-1,35-triazine-2,4-diamine] | – | – | B (Increase in comparison with non-treated of >1.7-2.0 fold is shown as B) | B (Increase in comparison with non-treated of >1.7-2.0 fold is shown as B)
13 | CN(Cc1ccccc1)Cc1nc(N)nc(Nc2cccc(Br)c2)n1 [Example 8] | – | – | B (Increase in comparison with non-treated of >1.7-2.0 fold is shown as B) | B (Increase in comparison with non-treated of >1.7-2.0 fold is shown as B)
14 | COc1cccc(Nc2nc(N)nc(CN(C)Cc3ccccc3)n2)c1 [Example 9] | – | – | C (Increase in comparison with non-treated of 1.2-1.7 fold is shown as C) | B (Increase in comparison with non-treated of >1.7-2.0 fold is shown as B)
15 | CN(Cc1ccccc1)Cc1cc(Nc2ccc3cnccc3c2)nc(N)n1 [Example 31, 6-((Benzyl(methyl)amino)methyl)-N^4-(isoquinolin-6-yl)pyrimidine-2,4-diamine] | – | – | – | A (Increase in comparison with non-treated of >2.0 fold is shown as A)
16 | COc1ccccc1Nc1cc(N)nc(CN(C)Cc2ccccc2)n1 [Example 63, 2-((Benzyl(methyl)amino)methyl)-N^4-(2-methoxyphenyl)pyrimidine-4,6-diamine] | – | – | C (Increase in comparison with non-treated of 1.2-1.7 fold is shown as C) | –
17 | COc1ccc(Nc2cc(N)nc(CN(C)Cc3ccccc3)n2)cc1 [Example 66, 2-((Benzyl(methyl)amino)methyl)-N^4-(4-methoxyphenyl)pyrimidine-4,6-diamine] | – | – | B (Increase in comparison with non-treated of >1.7-2.0 fold is shown as B) | –
18 | COc1ccccc1Nc1nc(N)cc(CN2CCc3ccccc3C2)n1 [Example 71, (6-((3,4-Dihydroisoquinolin-2(1H)-yl)methyl)-N-(2-methoxyphenyl)pyrimidine-2,4-diamine)] | – | – | C (Increase in comparison with non-treated of 1.2-1.7 fold is shown as C) | –
19 | COc1ccccc1Nc1nc(N)nc(CN(C)Cc2ccc3ccccc3c2)n1 [N2-(2-methoxyphenyl)-6-((methyl(naphthalen-2-ylmethyl)amino)methyl)-1,3,5-triazine-2,4-diamine] | B (Increase in comparison with non-treated of >1.7-2.0 fold is shown as B) | – | – | –
20 | CN(Cc1cccc(F)c1)Cc1nc(N)nc(Nc2ccc(Cl)cc2)n1 [N2-(4-chlorophenyl)-6-(((3-fluorobenzyl)(methyl)amino)methyl)-1,3,5-triazine-2,4-diamine] | C (Increase in comparison with non-treated of 1.2-1.7 fold is shown as C) | – | – | –
21 | Nc1nc(CN2CCCC2c2ccccc2)nc(Nc2ccc(F)cc2)n1 (centres unmarked) [N2-(4-fluorophenyl)-6-((2-phenylpyrrolidin-1-yl)methyl)-1,3,5-triazine-2,4-diamine] | B (Increase in comparison with non-treated of >1.7-2.0 fold is shown as B) | – | – | –

Reference: patent US11174242B2, “Heteroaryl compounds and their use” (Minoryx Therapeutics S.L., priority 2016, dated 2021)
